We go through 8 compounds from patent US9271978B2 (Zenith Epigenetics Corp., priority 2012, dated 2016).

Common to all, as to parameters: key: Active: Compounds with an IC50 value less than 30 μM were deemed to be active.; Not Active: Compounds with an IC50 value less than 30 μM were deemed to be active
One assay concerns hIL-6 mRNA. Briefly: Inhibition of hIL-6 mRNA transcription in U937 cells. The following applies: LPS stimulation, active = IC50 <30 μM. Type of assay: cell-based, human. Put shortly:
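U937 cells differentiated 3 days with 60 ng/mL PMA, pretreated 1 h with compound, then stimulated with 1 ug/mL E. coli LPS for 3 h at 37° C. hIL-6 mRNA quantified by one-step qRT-PCR, Ct normalized to internal control, expressed as fold induction relative to control.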

The test system of assay [1] is human AML MV-4-11 (CRL-9591) cells. Briefly: Inhibition of cell proliferation in MV4-11 cells. The format is cell-based. The following applies: human AML MV-4-11 cells, 72 h; active = IC50 <30 μM. Put shortly: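 Exponentially growing MV-4-11 cells (5×10^4/well) were treated immediately with two-fold dilutions of compound from 30 μM to 0.2 μM, in triplicate, for 72 h at 37° C, 5% CO2. Viability was measured by MTS absorbance at 490 nm after 3–4 h. Proliferation relative to DMSO after blank correction gave IC50.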

Assay [2] concerns the target T1, Brd4 bromodomain 1 (BRD4(1)) (Homo sapiens, UniProt O60885).
T1 construct: Illustrative results with the first bromodomain of Brd4; made in house; host or cells: E. coli BL21 (DE3)
Briefly: Inhibition of tetra-acetylated histone H4 binding to Brd4 bromodomain 1 (TR-FRET). The conditions noted are these: tetra-acetylated histone H4 peptide, active = IC50 <30 μM. Put shortly:
(§1)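 N-terminally His-tagged bromodomains (200 nM), expressed in E. coli, were incubated with biotinylated tetra-acetylated histone H4 peptide (25-50 nM), Eu-cryptate streptavidin and XL665 anti-His antibody in HEPES pH 7.4 buffer with KF, 0.2% DMSO, 2 h at room temperature. Inhibition read as decreased 665/620 nm TR-FRET; IC50 from dose-response curves.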
Background: Time-resolved FRET reads energy transfer from a long-lived donor to a nearby acceptor.

Assay [3] has as its target T2, second bromodomain of Brd2 (BRD2(2)) (Homo sapiens, UniProt P25440).
T2 construct: made in house; host or cells: E. coli BL21 (DE3)
Briefly: Inhibition of tetra-acetylated histone H4 binding to Brd2 bromodomain 2 (TR-FRET). The conditions noted are these: tetra-acetylated histone H4 peptide, active = IC50 <30 μM. The method, boiled down: as §1

A further assay relates to c-myc. Briefly: Inhibition of c-myc expression in MV4-11 cells (mRNA, real-time PCR). The format is cell-based. The conditions noted are these: Human AML MV4-11 cells, 3 h incubation. Put shortly:
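MV4-11 cells (2.5×10^4) treated with compound or 0.1% DMSO for 3 h at 37 °C. c-myc mRNA measured by RT real-time PCR duplexed with cyclophilin. IC50 from dose–response curve.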

T2 sequence (P25440 344-453 limits assumed): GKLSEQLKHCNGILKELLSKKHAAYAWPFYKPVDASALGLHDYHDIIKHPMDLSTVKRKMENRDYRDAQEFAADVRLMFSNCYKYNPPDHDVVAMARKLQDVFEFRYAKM

On to `Cc1noc(C)c1-c1ccc(=O)n(Cc2ccc(C(F)(F)F)cc2)n1` [Example 91, 6-(3,5-Dimethylisoxazol-4-yl)-2-(4-(trifluoromethyl)benzyl)pyridazin-3(2H)-one], for which the “IL-6 activity (IC50 <30 μM)” value in the assay with hIL-6 mRNA was “Not Active”. The “Cell Proliferation activity (IC50 <30 μM)” value (shortened to “Cell Proliferation activity”) in assay [1] is “Active”. The “FRET activity (IC50 <30 μM) BRD4(1)” value in assay [2] was “Active”. For the same compound, the “FRET activity (IC50 <30 μM) BRD2(2)” value in assay [3] is given as “Active”. The “c-myc activity (IC50 <30 μM)” value with c-myc was “Not Active”.

`Cc1noc(C)c1-c1ccc(=O)n(Cc2ccccc2F)n1` [Example 93, 6-(3,5-Dimethylisoxazol-4-yl)-2-(2-fluorobenzyl)pyridazin-3(2H)-one]: the “IL-6 activity (IC50 <30 μM)” value in the assay on hIL-6 mRNA was “Not Active”. Moreover, in assay [1], the “Cell Proliferation activity” value was “Active”. Also, the “FRET activity (IC50 <30 μM) BRD4(1)” value in assay [2] is reported as “Active”. Besides, the “FRET activity (IC50 <30 μM) BRD2(2)” value in assay [3] was “Active”. Besides, the “c-myc activity (IC50 <30 μM)” value with c-myc is “Not Active”.

Consider `Cc1noc(C)c1-c1ccc(=O)n(Cc2ccccc2C(F)(F)F)n1` [Example 94, 6-(3,5-Dimethylisoxazol-4-yl)-2-(2-(trifluoromethyl)benzyl)pyridazin-3(2H)-one], for which the “IL-6 activity (IC50 <30 μM)” value with hIL-6 mRNA was “Not Active”. Moreover, the “Cell Proliferation activity” value in assay [1] is “Active”. The “FRET activity (IC50 <30 μM) BRD4(1)” value in assay [2] was “Active”. Besides, the “FRET activity (IC50 <30 μM) BRD2(2)” value in assay [3] is “Active”. The “c-myc activity (IC50 <30 μM)” value in the assay on c-myc is “Not Active”.

As for `Cc1noc(C)c1-c1ccc(=O)n(C(C)c2ccccc2F)n1` (stereo not shown) [Example 95, 6-(3,5-Dimethylisoxazol-4-yl)-2-(1-(2-fluorophenyl)ethyl)pyridazin-3(2H)-one], the “IL-6 activity (IC50 <30 μM)” value in the assay on hIL-6 mRNA is listed as “Active”. Besides, in assay [1], the “Cell Proliferation activity” value is “Not Active”. Besides, the “FRET activity (IC50 <30 μM) BRD4(1)” value in assay [2] is given as “Active”. The “FRET activity (IC50 <30 μM) BRD2(2)” value in assay [3] is recorded as “Active”. In addition, the “c-myc activity (IC50 <30 μM)” value in the assay with c-myc is “Not Active”.

As to `Cc1noc(C)c1-c1ccc(=O)n(Cc2c(F)cccc2Cl)n1` [Example 96, 2-(2-Chloro-6-fluorobenzyl)-6-(3,5-dimethylisoxazol-4-yl)pyridazin-3(2H)-one], the “IL-6 activity (IC50 <30 μM)” value with hIL-6 mRNA is on record as “Active”. The “Cell Proliferation activity” value in assay [1] is listed as “Active”. Moreover, the “FRET activity (IC50 <30 μM) BRD4(1)” value in assay [2] is “Active”. Besides, the “FRET activity (IC50 <30 μM) BRD2(2)” value in assay [3] was “Active”. In addition, in the assay on c-myc, the “c-myc activity (IC50 <30 μM)” value was “Active”.

For `Cc1noc(N)c1-c1ccc(=O)n(Cc2ccccc2)c1` [Example 98, 5-(5-Amino-3-methylisoxazol-4-yl)-1-benzylpyridin-2(1H)-one trifluoroacetic acid], the “IL-6 activity (IC50 <30 μM)” value with hIL-6 mRNA is “Active”. Further, the “Cell Proliferation activity” value in assay [1] is reported as “Active”. In addition, the “FRET activity (IC50 <30 μM) BRD4(1)” value in assay [2] is reported as “Active”. Moreover, the “FRET activity (IC50 <30 μM) BRD2(2)” value in assay [3] is listed as “Active”. Further, in the assay on c-myc, the “c-myc activity (IC50 <30 μM)” value is on record as “Not Active”.

With `Cc1noc(C)c1-c1ccc(=O)n(C(C)c2ccc(F)cc2)c1` (stereo not shown) [Example 101, 5-(3,5-Dimethylisoxazol-4-yl)-1-(1-(4-fluorophenyl)ethyl)pyridin-2(1H)-one], the “IL-6 activity (IC50 <30 μM)” value in the assay on hIL-6 mRNA is given as “Active”. Besides, the “Cell Proliferation activity” value in assay [1] is “Active”. In assay [2], the “FRET activity (IC50 <30 μM) BRD4(1)” value is reported as “Active”. Moreover, in assay [3], the “FRET activity (IC50 <30 μM) BRD2(2)” value is on record as “Active”. Besides, in the assay with c-myc, the “c-myc activity (IC50 <30 μM)” value is on record as “Active”.

Consider `Cc1noc(C)c1-c1ccc(=O)n(Cc2ccsc2)n1` [Example 107, 6-(3,5-Dimethylisoxazol-4-yl)-2-(thiophen-3-ylmethyl)pyridazin-3(2H)-one], for which the “IL-6 activity (IC50 <30 μM)” value with hIL-6 mRNA was “Active”. Further, the “Cell Proliferation activity” value in assay [1] was “Active”. In addition, the “FRET activity (IC50 <30 μM) BRD4(1)” value in assay [2] is reported as “Active”. Further, in assay [3], the “FRET activity (IC50 <30 μM) BRD2(2)” value is given as “Active”. Further, the “c-myc activity (IC50 <30 μM)” value in the assay on c-myc is “Not Active”.
